Source: patent publication EP0558960A1, “Medicament for the prophylaxis and treatment of the neurologic and psychiatric disorders caused by alcohol abuse, which contains thiamine, folic acid and cobalamine” (priority 1992, dated 1993)

Legend:
[1] = Availability and passage of the blood-brain barrier, Benfotiamin compared with Thiaminhydrochlorid; format: in vivo
[2] = Thiamine levels in plasma and erythrocytes after oral administration of the medicament with Benfotiamin; format: in vivo; conditions: comparator not printed in b22 (Thiaminhydrochlorid)
[3] = in contrast to Thiaminhydrochlorid

Verfügbarkeit ([1]; compared with Thiaminhydrochlorid): besser verfügbar als Thiaminhydrochlorid | Blut-Hirn-Schranke [1, 3]: passiert | Liquor cerebrospinalis [1, 3]: anreichert | höhere Anstiege von Thiamin und Thiamindiphosphat-coenzymen in den Erythrozyten [2]: ca. 130 -fach | höhere Plasmaspiegel an Thiamin [2]: 10 -fach
SMILES: CC(=C(CCOP(=O)(O)O)SC(=O)c1ccccc1)N(C=O)Cc1cnc(C)nc1N [Benfotiamin]
